Test results taken from PubChem BioAssay (NCI).
≈ marks a conversion by molar mass, not a printed value. Where “and” joins values, the source holds several entries; their conditions need not be identical. Equal values may be shown once.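 Grown in 96-well plates, cells were treated for 48 hours with each compound at five concentrations. Insufficient inhibition: endpoint recorded as highest concentration tested. At the GI50, growth is halved. TGI is the concentration that stops growth completely.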

Columns and labels:
Experiment in all cases: NCI anticancer screen, dose series, 48 h
SW-620 colon = test system: SW-620 colon
NCI/ADR-RES ovarian = test system: NCI/ADR-RES ovarian
SF-268 CNS = test system: SF-268 CNS
OVCAR-5 ovarian = test system: OVCAR-5 ovarian
HCC-2998 colon = test system: HCC-2998 colon
U251 CNS = test system: U251 CNS
NCI-H522 lung = test system: NCI-H522 lung
HOP-62 NSCLC = test system: HOP-62 NSCLC
HOP-92 NSCLC = test system: HOP-92 NSCLC
RXF 393 renal = test system: RXF 393 renal

SMILES	GI50 (SW-620 colon)	GI50 (NCI/ADR-RES ovarian) [mg/L]	GI50 (SF-268 CNS) [mg/L]	GI50 (OVCAR-5 ovarian) [mg/L]	GI50 (HCC-2998 colon)	TGI (HCC-2998 colon)	GI50 (U251 CNS)	GI50 (NCI-H522 lung) [mg/L]	TGI (NCI-H522 lung)	TGI (HOP-62 NSCLC) [µM]	TGI (SW-620 colon)	TGI (HOP-92 NSCLC)	TGI (RXF 393 renal)	TGI (SF-268 CNS) [µM]	TGI (OVCAR-5 ovarian)	TGI (U251 CNS)	TGI (NCI/ADR-RES ovarian) [µM]	GI50 (HOP-92 NSCLC) [µM]
C=CCN1CC2CON(C(=O)C(OC)(c3ccccc3)C(F)(F)F)C2C1C(C)C (configuration not stated)	62.8 mg/L	34.2 (≈ 82.8 µM)	70.5 (≈ 171 µM)	32 (≈ 77.6 µM)	18.1 mg/L	38.8 mg/L	29.8 mg/L	27.5 (≈ 66.6 µM)	78.8 mg/L	–	–	–	–	–	–	–	–	–
C=CCn1c2c(sc1=S)C(S)N=CN2 (configuration not stated)	–	–	–	–	–	> 100 µM	–	–	> 100 µM	> 100	> 100 µM	55 µM	> 100 µM	> 100	> 100 µM	> 100 µM	–	–
N#CC(C(=O)CCC(=O)Nc1cccc(C(F)(F)F)c1)c1ccc(Cl)cc1 (configuration not stated)	–	–	–	–	–	> 100 µM	–	–	> 100 µM	> 100	> 100 µM	> 100 µM	–	> 100	> 100 µM	> 100 µM	–	–
CC(C)(C)OC(=O)N1N=NC2C1C1CC(OCc3ccccc3)(OCc3ccccc3)C2O1 (configuration not stated)	–	–	–	–	–	> 100 µM	–	–	–	> 100	47.6 µM	> 100 µM	> 100 µM	> 100	> 100 µM	> 100 µM	–	–
CCOC(=O)Cn1c(=O)n(C)c(=O)c2c1ncn2Cc1ccccc1	–	–	–	–	–	–	–	–	> 100 µM	> 100	> 100 µM	> 100 µM	–	> 100	> 100 µM	> 100 µM	–	–
Cc1ccc(S(=O)(=O)NC(=O)NC2=NC(C)(C)N(c3ccc(Cl)c(Cl)c3)C(N)=N2)cc1	–	–	–	–	–	> 100 µM	–	–	> 100 µM	> 100	> 100 µM	–	> 100 µM	> 100	> 100 µM	> 100 µM	> 100	–
O=C1C(=O)N(c2cc(Cl)ccc2Cl)C(=O)C(=O)C1c1nc2ccccc2o1	–	–	–	–	–	> 100 µM	–	–	> 100 µM	> 100	> 100 µM	> 100 µM	> 100 µM	> 100	> 100 µM	> 100 µM	–	–
COc1cc(C2C(C(=O)Nc3cc(F)c(F)cc3F)=C(C)NC(C)=C2C(=O)Nc2cc(F)c(F)cc2F)ccc1O	–	–	–	–	–	33.4 µM	–	–	36.3 µM	97.9	> 100 µM	18.4 µM	52.2 µM	> 100	59.9 µM	> 100 µM	–	–
Oc1ccc(Br)cc1C=Nc1ccc(N=Cc2cc(Br)ccc2O)cc1	–	–	–	–	–	> 100 µM	–	–	–	–	> 100 µM	> 100 µM	> 100 µM	> 100	> 100 µM	> 100 µM	–	–
COC(=O)/C(=C\c1ccc(N(CCC#N)CCC#N)cc1)NC(=O)c1cc([N+](=O)[O-])ccc1Cl	–	–	–	–	–	> 100 µM	–	–	> 100 µM	> 100	> 100 µM	–	> 100 µM	> 100	> 100 µM	> 100 µM	–	–
CCOc1ccccc1NC(=O)C(C#N)C1=C(Cl)C(=O)c2ccccc2C1=O (configuration not stated)	2.81 µM	–	–	–	12.3 µM	3.15 µM and 25.6 µM	1.95 µM	–	4.22 µM	19.7	3.45 µM and 6.68 µM	3.65 µM and 3.19 µM	3.43 µM and 3.25 µM	4.79	3.57 µM and 3.55 µM	3.14 µM and 3.82 µM	–	1.4
OCC(O)CNc1ccnc2cc(Cl)ccc12 (configuration not stated)	–	–	–	–	–	> 100 µM	–	–	> 100 µM	> 100	> 100 µM	> 100 µM	> 100 µM	> 100	> 100 µM	> 100 µM	–	–
O/C(=C\c1nc2ccccc2nc1NC12CC3CC(CC(C3)C1)C2)c1ccc(Br)cc1	–	–	–	–	–	> 10 µM	–	–	> 10 µM	> 10	> 10 µM	–	> 10 µM	> 10	> 10 µM	> 10 µM	> 10	–
Cc1cccc(C)c1NC(=O)C(=O)CC(=O)c1cccc([N+](=O)[O-])c1	–	–	–	–	–	–	–	–	> 100 µM	> 100	> 100 µM	> 100 µM	–	> 100	> 100 µM	> 100 µM	–	–
Cc1cc(C(C)(C)C)cc(Cc2cc(C(C)(C)C)cc(Cc3cc(C(C)(C)C)cc(C)c3O)c2O)c1O	–	–	–	–	–	–	–	–	13.2 µM	28.9	17.4 µM	10.5 µM	6.26 µM	12.2	31.3 µM	14.9 µM	–	–
CCCCc1c2c(nc3c1CCC/C3=C\c1ccccc1)/C(=C/c1ccccc1)CCC2	–	–	–	–	–	> 100 µM	–	–	> 100 µM	> 100	> 100 µM	–	–	> 100	–	> 100 µM	–	–
CC(=O)OC1C2CCC1C1C2C2(Cl)C(Cl)=C(Cl)C1(Cl)C2(Cl)Cl (configuration not stated)	–	–	–	–	–	–	–	–	25 µM	29	28.4 µM	23.3 µM	29.3 µM	32.6	23.1 µM	26.2 µM	–	–
COC1=C(Br)C(=O)c2nc(C)ccc2C1=O	–	–	–	–	–	32.2 µM	–	–	15.8 µM	> 60.3	21.7 µM	15.5 µM	24.5 µM	33.1	34.7 µM	28.5 µM	–	–
